In patent US5258362A, “Renin inhibiting compounds” (Abbott Laboratories, priority 1992, dated 1993) one finds IC50 data, which are given here for 19 molecules.

This experiment has as its target T1, human renal renin (Homo sapiens, UniProt P00797).
T1 construct: human renal renin, free from acid proteolytic activity; from tissue; host or cells: human kidney (from the word 'renal')
T1 sequence (P00797 67-406): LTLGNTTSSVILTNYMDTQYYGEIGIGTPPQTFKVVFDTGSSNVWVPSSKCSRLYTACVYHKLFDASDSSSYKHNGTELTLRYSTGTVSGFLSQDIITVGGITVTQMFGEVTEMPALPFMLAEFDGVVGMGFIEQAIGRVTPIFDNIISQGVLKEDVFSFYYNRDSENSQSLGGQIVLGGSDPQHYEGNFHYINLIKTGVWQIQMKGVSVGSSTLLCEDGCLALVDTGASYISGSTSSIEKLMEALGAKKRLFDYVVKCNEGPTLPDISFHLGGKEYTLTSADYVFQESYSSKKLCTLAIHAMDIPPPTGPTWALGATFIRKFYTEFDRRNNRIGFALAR
The experiment can be described thus: Inhibition of human renal renin in vitro (angiotensin I formed, measured by radioimmunoassay). Conditions: human renal renin with renin substrate (human angiotensinogen), 37° C., pH 6.0. The class given is biochemical. The protocol:
At the end of the incubation, the amount of angiotensin I formed is measured by radioimmunoassay and the molar concentration required to cause 50% inhibition, expressed as the IC50 is calculated.
`CC(C)(C)OC(=O)N[C@@H](Cc1ccccc1)C(=O)N[C@@H](Cc1cnc[nH]1)C(=O)N[C@@H](CC1CCCCC1)[C@@H](O)[C@H]1OCC1(C)C` [Example 48, Boc-Phe-His Amide of (1R,2S,2'S)-2-Amino-3-cyclohexyl-1-[3',3'-(dimethyl)oxetan-2'-yl]-1-(hydroxy)propane] registered an IC50 of 1 nM.
`CC[C@H]1CO[C@@H]1[C@H](O)[C@H](CC(C)C)NC(=O)C(Cc1cscn1)NC(=O)[C@H](Cc1ccccc1)Cn1ccnc1` (stereo partly drawn) [Example 181, (2R)-2-Benzyl-3-(imidazol-1-yl)propionyl-(4-thiazolyl)alanine Amide of (1R,2S,2S',3'S)-2-Amino-1-(3'-(ethyl)oxetan-2'-yl]-1-hydroxy-4-(methyl)pentane] had a half-inhibitory concentration (IC50) of 3.7 nM.
With `CC[C@H]1CO[C@@H]1[C@H](O)[C@H](CC(C)C)NC(=O)C(Cc1cnc[nH]1)NC(=O)C(Cc1ccccc1)NC(=O)OC(C)(C)C` (stereo partly drawn) [Example 171, Boc-Phe-His Amide of (1R,2S,2'S,3'S)-2-Amino-1-[3'-(ethyl)oxetan-2'-yl]-1-hydroxy-4-(methyl)pentane] the figure was 0.5 nM; with `CCCCC(NC(=O)CCc1ccccc1)C(=O)N[C@@H](CC1CCCCC1)[C@@H](O)[C@H]1OC[C@@H]1CC` (stereo partly drawn) [Example 186, Dihydrocinnamoyl-(nor)Leucine Amide of (1R,2S,2'S,3'S)-2-Amino-3-cyclohexyl-1-[3'-(ethyl)oxetan-2'-yl]-1-(hydroxy)propane], 3.3 nM.
With `CC[C@H]1CO[C@@H]1[C@H](O)[C@H](CC1CCCCC1)NC(=O)C(Cc1cscn1)NC(=O)[C@@H](CC(=O)N1CCN(C)CC1)Cc1ccccc1` (stereo partly drawn) [Example 70, (2R)-2-Benzyl-3-[(4-methylpiperazin-1-yl)carbonyl]propionyl-(4-thiazolyl)alanine Amide of (1R,2S,2'S,3'S)-2-Amino-3-cyclohexyl-1-[3'-(ethyl)oxetan-2'-yl]-1-(hydroxy)propane] the figure was 0.2 nM.
On to `CC([C@H]1CO[C@@H]1[C@H](O)[C@H](CC1CCCCC1)NC(=O)[C@H](Cc1cnc[nH]1)NC(=O)[C@H](Cc1ccccc1)NC(=O)OC(C)(C)C)C(F)(F)F` (stereo partly drawn) [Example 47, Boc-Phe-His Amide of (1R,2S,2'S,3'S)-2-Amino-3-cyclohexyl-1-hydroxy-1-[3'-(1,1,1-trifluoroisopropyl)oxetan-2'-yl]propane], for which the IC50 was 1.2 nM.
`CCCC[C@H](NC(=O)C(Cc1ccccc1)Cn1ccnc1)C(=O)N[C@@H](CC1CCCCC1)[C@@H](O)[C@H]1OC[C@@H]1CC` (mixture of isomers) [Example 154, (2RS)-2-Benzyl-3-(imidazol-1-yl)propionyl-(nor)Leucine Amide of (1R,2S,2'S,3'S)-2-Amino-3-cyclohexyl-1-[3'-(ethyl)oxetan-2'-yl]-1-(hydroxy)propane] displayed an IC50 of 0.7 nM.
The result for `CC[C@H]1CO[C@@H]1[C@H](O)[C@H](CC1CCCCC1)NC(=O)C(Cc1cnc[nH]1)NC(=O)C(Cc1ccccc1)NC(=O)OC(C)(C)C` (stereo partly drawn) [Example 40, Boc-Phe-His Amide of (1R,2S,2'S,3'S)-2-Amino-3-cyclohexyl-1-[3'-(ethyl)oxetan-2'-yl]-1-(hydroxy)propane] reads 0.47 nM; that for `CCCC[C@H](NC(=O)[C@@H](CC(=O)N1CCN(C)CC1)Cc1ccccc1)C(=O)N[C@@H](CC1CCCCC1)[C@@H](O)[C@H]1OC[C@@H]1CC` [Example 155, (2R)-2-Benzyl-3-(4-methylpiperazin-1-ylcarbonyl)propionyl(nor)Leucine Amide of (1R,2S,2'S,3'S)-2-Amino-3-cyclohexyl-1-[3'-(ethyl)oxetan-2'-yl]-1-(hydroxy)propane], 0.37 nM; that for `CC[C@H]1CO[C@@H]1[C@H](O)[C@H](CC(C)C)NC(=O)C(Cc1cscn1)NC(=O)[C@H](Cc1ccccc1)CS(=O)(=O)N1CCN(C)CC1` (stereo partly drawn) [Example 178, (2S) 2-Benzyl-3-(1-methyl-piperazin-4-ylsulfonyl)propionyl-(4-thiazolyl)alanineAmide of (1R,2S,2'S,3'S)-2-Amido-1-[3'-(ethyl)oxetan-2'-yl]-1-hydroxy-4-(methyl)pentane], 0.38 nM.
The result for `CCC[C@H]1CO[C@@H]1[C@H](O)[C@H](CC1CCCCC1)NC(=O)C(Cc1cnc[nH]1)NC(=O)C(Cc1ccccc1)NC(=O)OC(C)(C)C` (stereo partly drawn) [Example 43, Boc-Phe-His Amide of (1R,2S,2'S,3'S)-2-Amino-3-cyclohexyl-1-hydroxy-1-[3'-(propyl)oxetan-2'-yl]propane] reads 0.38 nM; that for `CC(C)(C)OC(=O)NC(Cc1ccccc1)C(=O)NC(Cc1cnc[nH]1)C(=O)N[C@@H](CC1CCCCC1)[C@@H](O)[C@@H]1CCO1` (stereo partly drawn) [Example 45, Boc-Phe-His Amide of (1R,2S,2'S)-2-Amino-3-cyclohexyl-1-hydroxy-1-(oxetan-2'-yl)propane], 1.2 nM.
In turn, `CCOC(=O)NC(Cc1ccccc1)C(=O)NC(CC(C)C)C(=O)N[C@@H](CC1CCCCC1)[C@@H](O)[C@H]1OC[C@@H]1CC` (stereo partly drawn) [Example 164, Ethoxycarbonyl-Phe-Leu Amide of (1R,2S,2'S,3'S)-2-Amino-3-cyclohexyl-1-[3'-(ethyl)oxetan-2'-yl]-1-(hydroxy)propane] came in with an IC50 of 0.46 nM.
In the case of `CC(C)C[C@H]1CO[C@@H]1[C@H](O)[C@H](CC1CCCCC1)NC(=O)[C@H](Cc1cnc[nH]1)NC(=O)[C@H](Cc1ccccc1)NC(=O)OC(C)(C)C` [Example 44, Boc-Phe-His Amide of (1R,2S,2'S,3'S)-2-Amino-3-cyclohexyl-1-hydroxy-1-[3'-(isobutyl)oxetan-2'-yl]propane], the IC50 came out at 1.1 nM.
The result for `CC[C@H]1CO[C@@H]1[C@H](O)[C@H](CC1CCCCC1)NC(=O)[C@H](Cc1cscn1)NC(=O)[C@@H](CC(=O)N(C)CCc1ccccn1)Cc1ccccc1` [Example 71, (2R)-2-Benzyl-3-[(2-pyridin-2-ylethyl)methylaminocarbonyl]propionyl-(4-thiazolyl)alanine Amide of (1R,2S,2'S,3'S)-2-Amino-3-cyclohexyl-1-[3'-(ethyl)oxetan-2'-yl]-1-(hydroxy)propane] reads 0.27 nM; that for `CC[C@H]1CO[C@@H]1[C@H](O)[C@H](CC1CCCCC1)NC(=O)[C@H](Cc1cscn1)NC(=O)[C@@H](CC(=O)N1CCOCC1)Cc1ccccc1` [Example 69, (2R)-2-Benzyl-3-(morpholinocarbonyl)propionyl-(4-thiazolyl)alanine Amide of (1R,2S,2'S,3'S)-2-Amino-3-cyclohexyl-1-[3'-(ethyl)oxetan-2'-yl]-1-(hydroxy)propane], 0.25 nM; that for `CC[C@H]1CO[C@@H]1[C@H](O)[C@H](CC1CCCCC1)NC(=O)C(C)NC(=O)[C@H](Cc1ccccc1)Cn1ccnc1` (stereo partly drawn) [Example 192, (2R)-2-Benzyl-3-(imidazol-1-yl)propionyl-alanine Acid of (1R,2S,2'S,3'S)-2-Amino-3-cyclohexyl-1-[3'-(ethyl)oxetan-2'-yl]-1-(hydroxy)propane], 3.4 nM.
Consider `CC(C)[C@H]1CO[C@@H]1[C@H](O)[C@H](CC1CCCCC1)NC(=O)[C@H](Cc1cnc[nH]1)NC(=O)[C@H](Cc1ccccc1)NC(=O)OC(C)(C)C` [Example 41, Boc-Phe-His Amide of (1R,2S,2'S,3'S)-2-Amino-3-cyclohexyl-1-hydroxy-1-[3'-(isopropyl)oxetan-2'- yl]propane], for which the IC50 is 0.61 nM.
The molecule `C[C@H]1CO[C@@H]1[C@H](O)[C@H](CC1CCCCC1)NC(=O)C(Cc1cnc[nH]1)NC(=O)C(Cc1ccccc1)NC(=O)OC(C)(C)C` (stereo partly drawn) [Example 46, Boc-Phe-His Amide of (1R,2S,2'S,3'S)-2-Amino-3-cyclohexyl-1-hydroxy-1-[3'-(methyl)oxetan-2'-yl]propane] displayed an IC50 of 0.51 nM.
